Measurements published in patent publication EP3219306B1, “COMPOSITION COMPRISING CITICOLINE AND HOMOTAURINE FOR PREVENTING AND TREATING NEUODEGENERATIVE DISEASES AND COGNITIVE DISORDERS” (NEURAXPHARM ITALY S.P.A., priority 2016, dated 2017).
Entries after “also recorded” stand apart in the source; their conditions may differ.

Assays:
[1] = Bioavailability of [methyl-14C]-labelled citicoline by oral and venous route, radioactivity in plasma; type: in vivo, experimental animal models
Text: In experimental animal models, the applicant compared the bioavailability by oral and venous route of citicoline, labeling it with a radioactive label -[methyl-14C].

Water solubility = type: physicochemical
retinal cells = settings: for cytotoxicity (cell death) on the cell cultures: 1, 10, 100 µM for 24 h; for toxicity to retinal cells (MTT): 1, 10 or 100 µM
Method: (§1) The MTT assay was used to measure the viability of both neuronal and retina cells. The cells were prepared in a 96-well plate in DMEM-F12 with 7% FBS. After cultured in DMEM-F12 without serum for 12 h, Ab25-35 ([…]) or glucose oxidase (GOX) alone or in combination with homotaurine (Hom), citicoline (CITC) or Hom + CITC were added to the medium. Twenty-four hours later, the cells were incubated with […] MTT (Roche, 0.5 mg/ml) at 37 °C for 4 hours, then the crystals were dissolved in […] DMSO. Absorbance at 570 nm was measured with a spectrophotometer (TECAN Infinite M200, Switzerland).

Aβ42 = Aβ42 (Homo sapiens, UniProt P05067); settings: 8-week treatment, 30 or 100 mg/kg/day; cited from earlier work
[2] = Randomized double-blind, placebo-controlled trial in subjects with medium to moderate Alzheimer's disease; type: in vivo, human; settings: 50, 100, 150 mg homotaurine in combination with 500, 750 and 1000 mg sodium citicoline
Method: Studies to evaluate the pharmacokinetic-pharmacodynamic effect of compositions for use of the invention have provided positive indications about the activity. In particular, in a randomized double-blind, placebo-controlled trial in which 58 subjects with from medium to moderate Alzheimer's disease were administered 50, 100, 150 mg of homotaurine in combination with 500, 750 and 1000 mg of sodium citicoline.

Aβ40 = Aβ40 (Homo sapiens, UniProt P05067); settings: 8-week treatment, 30 or 100 mg/kg/day; cited from earlier work
[3] = system: human retina pigment epithelium (ARPE-19); assay: MTT assay, cell viability of retina cells against cytotoxicity induced by glucose oxidase (GOX); type: cell-based; settings: cytotoxicity induced by GOX 50 mU/ml; 1 µM; n = 5
Method: as §1

[4] = 50 mg per day, individuals with an average decline of cognitive functions; cited from earlier work

Aβ40, sequence (P05067 672-711 limits assumed, species assumed): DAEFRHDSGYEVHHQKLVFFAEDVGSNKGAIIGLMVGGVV
Aβ42, sequence (P05067 672-713 limits assumed, species assumed): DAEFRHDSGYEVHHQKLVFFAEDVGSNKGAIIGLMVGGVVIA

## C[N+](C)(C)CCOP(=O)(O)OP(=O)([O-])OC[C@H]1O[C@@H](n2ccc(N)nc2=O)[C@H](O)[C@@H]1O [citicoline, 2-[{[5-(4-amino-2-oxopyrimidin-1-yl)-3,4-dihydroxyoxolan-2-yl]methoxy-hydroxyphosphoryl}oxy-hydroxyphosphoryl]oxyethyl-thrimethylazanium]
[1]; oral administration
  bioavailability: greater than 90%
[1]; oral vs venous route, [methyl-14C] label
  equivalence of the two alternative administration routes (percentage of radioactivity in plasma over time): about 90%
Water solubility
  water solubility: high
Retinal cells
  cytotoxicity (cell death) on the cell cultures: None of the concentrations induced cell death; also recorded: substantial absence of cytotoxicity
  toxicity to retinal cells (MTT): no evidence of selective toxicity

## NCCCS(=O)(=O)O [homotaurine, 3-amino-1-propanesulfonic acid]
Aβ42
  plasma level of Aβ42: able to reduce
Retinal cells
  cytotoxicity (cell death) on the cell cultures: None of the concentrations induced cell death; also recorded: substantial absence of cytotoxicity
  toxicity to retinal cells (MTT): no evidence of selective toxicity
[2]
  crossing of the blood-brain barrier: crossed the blood-brain barrier
Aβ40
  plasma level of Aβ40: able to reduce
[3]
  cell viability (MTT): able to improve the cell viability
[4]
  effect on atrophy of the hippocampus: positive effect
  effect on episodic memory loss: positive effect

## C[N+](C)(C)CCOP(=O)([O-])OP(=O)([O-])OC[C@H]1O[C@@H](n2ccc(N)nc2=O)[C@H](O)[C@@H]1O.[Na+] [sodium citicoline]
[2]
  crossing of the blood-brain barrier: crossed the blood-brain barrier
